Source: US20160304556A1, “[…] ACTIVE COMPOUNDS AND THEIR METHODS OF USE” (AGIOS PHARMACEUTICALS, INC, priority 2012, published 2016)

What was measured:
[1] = target: IDH1 R132H (Homo sapiens, UniProt O75874, R132H); assay: In vitro NADPH depletion assay for IDH1m R132H inhibitors; type: biochemical; conditions: enzyme, diaphorase/resazurin readout, read-out: IDH R132H IC50
Method: A test compound is prepared as 10 mM stock in DMSO and diluted to 50× final concentration in DMSO, for a 50 μl reaction mixture. IDH enzyme activity converting alpha-ketoglutarate to 2-hydroxyglutaric acid is measured using a NADPH depletion assay. In the assay the remaining cofactor is measured at the end of the reaction with the addition of a catalytic excess of diaphorase and resazurin, to generate a fluorescent signal in proportion to the amount of NADPH remaining. IDH1-R132 homodimer enzyme is diluted to […] in 40 μl of Assay Buffer(150 mM NaCl, 20 mM Tris-Cl pH 7.5, 10 mM MgCl2, 0.05% BSA, 2 mM b-mercaptoethanol); 1 μl of test compound dilution in DMSO is added and the mixture is incubated for 60 minutes at room temperature. The reaction is started with the addition of 10 μl of Substrate Mix ([…], 5 mM alpha-ketoglutarate, in Assay Buffer) and the mixture is incubated for 90 minutes at room temperature. The reaction is terminated with the addition of 25 μl of Detection Buffer (36 μg/ml diaphorase, […], in 1× Assay Buffer), and is incubated for 1 minute before reading on a SpectraMax platereader at Ex544/Em590.
Representative compounds of formula I set forth in Table 1 were tested in this assay and the results are set forth below in Table 3.

[2] = tested on: HT1080 cells; assay: Cellular assay, inhibition of 2-HG production (LC-MS) in HT1080 cells; type: cell-based; conditions: Homo sapiens, HT-1080, 48 hours, LC-MS of media
Method: Cells (HT1080 or U87MG) are grown in T125 flasks in DMEM containing 10% FBS, 1× penicillin/streptomycin and 500 ug/mL G418 (present in U87MG cells only). They are harvested by trypsin and seeded into 96 well white bottom plates at a density of 5000 cell/well in 100 μl/well in DMEM with 10% FBS. No cells are placed in columns 1 and 12. Cells are incubated overnight at 37° C. in 5% CO2. The next day test compounds are made up at 2× the final concentration and 100 μl are added to each cell well. The final concentration of DMSO is 0.2% and the DMSO control wells are plated in row G. The plates are then placed in the incubator for 48 hours. At 48 hours, 100 μl of media is removed from each well and analyzed by LC-MS for 2-HG concentrations. The cell plate is placed back in the incubator for another 24 hours. At 72 hours post compound addition, 10 mL/plate of Promega Cell Titer Glo reagent is thawed and mixed. The cell plate is removed from the incubator and allowed to equilibrate to room temperature. Then 100 μl of Promega Cell Titer Glo reagent is added to each well of media. The cell plate is then placed on an orbital shaker for 10 minutes and then allowed to sit at room temperature for 20 minutes. The plate is then read for luminescence with an integration time of 500 ms.
The IC50 for inhibition of 2-HG production (concentration of test compound to reduce 2HG production by 50% compared to control) in these two cell lines for various compounds of formula I is set forth in Table 2 above.

Sequence of IDH1 R132H (O75874 whole entry R132H): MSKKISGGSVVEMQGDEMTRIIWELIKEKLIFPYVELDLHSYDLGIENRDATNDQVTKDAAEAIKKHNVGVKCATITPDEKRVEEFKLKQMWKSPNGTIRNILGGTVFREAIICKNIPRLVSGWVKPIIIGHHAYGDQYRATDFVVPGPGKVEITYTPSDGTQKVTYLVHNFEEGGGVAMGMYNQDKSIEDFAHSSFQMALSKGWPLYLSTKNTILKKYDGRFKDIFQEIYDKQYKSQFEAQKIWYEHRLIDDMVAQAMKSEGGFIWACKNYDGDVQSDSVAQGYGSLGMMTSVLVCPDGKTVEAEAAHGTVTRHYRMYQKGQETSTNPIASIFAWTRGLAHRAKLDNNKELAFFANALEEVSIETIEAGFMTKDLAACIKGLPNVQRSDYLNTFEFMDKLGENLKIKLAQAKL

Row | SMILES | IC50 [1] [nM] | IC50 [2] [nM]
1 | O=C(NC1CC(F)(F)C1)[C@@H](c1ccccc1Cl)N(C(=O)[C@@H]1Cc2ccccc2N1)c1cc(F)cc(F)c1 (single isomer, unassigned) [Compound 117] | 100 to 500 | –
2 | O=C(NC1CC(F)(F)C1)[C@H](c1ccccc1Cl)N(C(=O)[C@@H]1Cc2ccccc2N1)c1cc(F)cc(F)c1 (single isomer, unassigned) [Compound 118] | 100 to 500 | 100 to 500
3 | O=C(NC1CC(F)(F)C1)C(c1ccccc1Cl)N(C(=O)[C@@H]1CCCc2nccn21)c1cccc(F)c1 (stereo in doubt) [Compound 41] | ≤ 100 | 100 to 500
4 | Cc1ccccc1[C@@H](C(=O)NC1CCCCC1)N(C(=O)[C@@H]1CCCN1S(C)(=O)=O)c1cccc(F)c1 [Compound 1] | 500 to 1000 | –
5 | Cc1ccccc1[C@@H](C(=O)NC1CCCCC1)N(C(=O)[C@H]1CCCN1S(C)(=O)=O)c1cccc(F)c1 [Compound 2] | 100 to 500 | 1000 to 2000
6 | CNC(=O)N1CCCC[C@@H]1C(=O)N(c1cccc(F)c1)[C@H](C(=O)NC1CCCCC1)c1ccccc1C [Compound 3] | 500 to 1000 | –
7 | Cc1ccccc1[C@@H](C(=O)NC1CCCCC1)N(C(=O)[C@H]1CCCCN1C(=O)N(C)C)c1cccc(F)c1 [Compound 4] | 500 to 1000 | –
8 | COC(=O)N(C)[C@@H](C)C(=O)N(c1cccc(F)c1)[C@H](C(=O)NC1CCCCC1)c1ccccc1C [Compound 5] | ≤ 100 | 500 to 1000
9 | CCS(=O)(=O)NCC(=O)N(c1cccc(F)c1)C(C(=O)NC1CCCCC1)c1ccccc1C (stereo not drawn) [Compound 6] | 100 to 500 | 1000 to 2000
10 | Cc1ccccc1C(C(=O)NC1CCCCC1)N(C(=O)CNC(=O)OC(C)(C)C)c1cccc(F)c1 (stereo not drawn) [Compound 7] | 500 to 1000 | –
11 | Cc1ccccc1C(C(=O)NC1CCCCC1)N(C(=O)CCNC(=O)OC(C)(C)C)c1cccc(F)c1 (stereo not drawn) [Compound 8] | 500 to 1000 | –
12 | CC(=O)N1CCC[C@H]1C(=O)N(c1cccc(F)c1)[C@H](C(=O)NC1CCCCC1)c1ccccc1C [Compound 9] | 100 to 500 | 1000 to 2000
13 | CC(=O)N1CCC[C@@H]1C(=O)N(c1cccc(F)c1)[C@H](C(=O)NC1CCCCC1)c1ccccc1C [Compound 10] | 100 to 500 | –
14 | Cc1ccccc1C(C(=O)NC1CCC(F)(F)CC1)N(C(=O)Cn1ccnc1C(F)(F)F)c1cccc(F)c1 (stereo not drawn) [Compound 11] | 100 to 500 | 500 to 1000
15 | COC(=O)NCCC(=O)N(c1cccc(F)c1)C(C(=O)NC1CCCCC1)c1ccccc1C (stereo not drawn) [Compound 12] | 100 to 500 | –
16 | CNC(=O)N1CCC[C@@H]1C(=O)N(c1cccc(F)c1)[C@H](C(=O)NC1CCCCC1)c1ccccc1C [Compound 13] | 500 to 1000 | –
17 | Cc1ccccc1[C@@H](C(=O)NC1CCCCC1)N(C(=O)[C@H]1CCCN1)c1cccc(F)c1 [Compound 14] | 500 to 1000 | –
18 | Cc1ccccc1C(C(=O)NC1CC2CC2C1)N(C(=O)CNc1cccnc1F)c1cccc(F)c1 (stereo not drawn) [Compound 15] | 100 to 500 | –
19 | Cc1ccccc1C(C(=O)NC1CCC(F)(F)CC1)N(C(=O)CNc1cccnc1F)c1cccc(F)c1 (stereo not drawn) [Compound 16] | – | 100 to 500
20 | Cc1ccccc1C(C(=O)NC1CC(F)(F)C1)N(C(=O)CNc1ncccc1F)c1cccc(F)c1 (stereo not drawn) [Compound 17] | 100 to 500 | 100 to 500
21 | Cc1ccccc1C(C(=O)NC1CC(F)(F)C1)N(C(=O)Cn1ccnc1C)c1cccc(F)c1 (stereo not drawn) [Compound 18] | 500 to 1000 | 1000 to 2000
22 | Cc1ccccc1C(C(=O)NC1CC(F)(F)C1)N(C(=O)CNc1cccnc1F)c1cccc(F)c1 (stereo not drawn) [Compound 19] | – | 100 to 500

Row | SMILES | IC50 [1] [nM] | IC50 [2] [nM]
23 | O=C(NC1CCCCC1)C(c1ccccc1Cl)N(C(=O)c1cc2ccccc2[nH]1)c1cccc(F)c1 (stereo not drawn) [Compound 20] | 500 to 1000 | –
24 | O=C(NC1CCCCC1)C(c1ccccc1Cl)N(C(=O)Cn1cnc(Cl)c1Cl)c1cccc(F)c1 (stereo not drawn) [Compound 21] | – | 100 to 500
25 | N#Cc1ncn(CC(=O)N(c2cccc(F)c2)C(C(=O)NC2CCCCC2)c2ccccc2Cl)c1C#N (stereo not drawn) [Compound 22] | 100 to 500 | 500 to 1000
26 | O=C(NC1CCCCC1)C(c1ccccc1Cl)N(C(=O)Cn1cncn1)c1cccc(F)c1 (stereo not drawn) [Compound 24] | ≤ 100 | 100 to 500
27 | Cc1nccn1CC(=O)N(c1cccc(-c2nnco2)c1)C(C(=O)NC1CCCCC1)c1ccccc1Cl (stereo not drawn) [Compound 25, N-(3-(1,3,4-oxadiazol-2-yl)phenyl)-N-(1-(2-chlorophenyl)-2-(cyclohexylamino)-2-oxoethyl)-2-(2-methyl-1H-imidazol-1-yl)acetamide] | 100 to 500 | 1000 to 2000
28 | Cc1nccn1CC(=O)N(c1cccc2[nH]ncc12)C(C(=O)NC1CCCCC1)c1ccccc1Cl (stereo not drawn) [Compound 26] | 100 to 500 | 1000 to 2000
29 | N#Cc1cccc(N(C(=O)Cn2cnc(Cl)c2Cl)C(C(=O)NC2CCCCC2)c2ccccc2Cl)c1 (stereo not drawn) [Compound 27] | 100 to 500 | 500 to 1000
30 | N#Cc1ccccc1C(C(=O)NC1CCCCC1)N(C(=O)Cn1cnc(Cl)c1Cl)c1cccc(F)c1 (stereo not drawn) [Compound 28] | 100 to 500 | –
31 | O=C(NC1CCCCC1)C(c1ccc(F)cc1F)N(C(=O)Cn1cnc(Cl)c1Cl)c1ccc(F)c(F)c1 (stereo not drawn) [Compound 30, N-cyclohexyl-2-(2-(4,5-dichloro-1H-imidazol-1-yl)-N-(3,4-difluorophenyl)acetamido)-2-(2,4-difluorophenyl)acetamide] | 100 to 500 | 500 to 1000
32 | O=C(NC1CCCCC1)C(c1ccccc1Cl)N(C(=O)C1CCc2ccccc2N1)c1cccc(F)c1 (stereo not drawn) [Compound 31, N-(1-(2-chlorophenyl)-2-(cyclohexylamino)-2-oxoethyl)-N-(3-fluorophenyl)-1,2,3,4-tetrahydroquinoline-2-carboxamide] | ≤ 100 | 100 to 500
33 | O=C(NC1CCCCC1)C(c1ccccc1Cl)N(C(=O)C1Cc2ccccc2N1)c1cccc(F)c1 (stereo not drawn) [Compound 32] | 100 to 500 | 100 to 500
34 | O=C(NC1CCC(F)(F)CC1)C(c1ccccc1Cl)N(C(=O)c1cc2ccccc2[nH]1)c1cccc(F)c1 (stereo not drawn) [Compound 34] | 500 to 1000 | –
35 | O=C(NC1CCC(F)(F)CC1)C(c1ccccc1Cl)N(C(=O)Cn1cncn1)c1ccc(F)c(F)c1 (stereo not drawn) [Compound 37] | 100 to 500 | –
36 | O=C(NC1CCC(F)(F)CC1)C(c1ccccc1Cl)N(C(=O)Cn1cnc(Cl)c1Cl)c1ccc(F)c(F)c1 (stereo not drawn) [Compound 38] | 100 to 500 | –
37 | CC(C)(C)OC(=O)N1CCC[C@H]1C(=O)N(c1cccc(F)c1)[C@H](C(=O)NC1CC(F)(F)C1)c1ccccc1Cl [Compound 39] | 500 to 1000 | –
38 | O=C(NC1CC(F)(F)C1)C(c1ccccc1Cl)N(C(=O)c1cccc2nccn12)c1cccc(F)c1 (stereo not drawn) [Compound 40] | 500 to 1000 | –
39 | CC(C)(C)OC(=O)N1CCC[C@H]1C(=O)N(c1cccc(F)c1)[C@H](C(=O)NC1CCC(F)(F)CC1)c1ccccc1Cl [Compound 44] | 500 to 1000 | –
40 | CNS(=O)(=O)c1cccc(N(C(=O)[C@@H]2CCCN2C(=O)OC)[C@H](C(=O)NC2CC(F)(F)C2)c2ccccc2Cl)c1 [Compound 58] | 100 to 500 | –
41 | Cc1nccn1CC(=O)N(c1cccc(F)c1)C(C(=O)NC1CC(F)(F)C1)c1ccccc1Cl (stereo not drawn) [Compound 59] | 100 to 500 | –
42 | O=C(NC1CC(F)(F)C1)C(c1ccccc1Cl)N(C(=O)CN1CCOC1=O)c1cccc(F)c1 (stereo not drawn) [Compound 60, 2-(2-chlorophenyl)-N-(3,3-difluorocyclobutyl)-2-(N-(3-fluoro-phenyl)-2-(2-oxooxazolidin-3-yl)acetamido)acetamide] | 500 to 1000 | –
43 | O=C(NC1CC(F)(F)C1)[C@H](c1ccccc1Cl)N(C(=O)C1CCN1c1ncccn1)c1cccc(F)c1 (stereo partly drawn) [Compound 103] | – | 1000 to 2000
